We go through seven compounds from PMC3210067 (Nature chemical biology, 2011).

Series [1] in a line: human liver microsomal stability. The series is classed as in vitro ADME. The note with it: liver microsomes, pH 7.4. On the technique in general: Liver microsomes are a subcellular fraction often used to study metabolism.
Series [2] is described as follows: rat liver microsomal stability. The series is classed as in vitro ADME. The note with it: liver microsomes, pH 7.4.
Another series is described as follows: H/D exchange studies. The series is classed as physicochemical. The note with it: for H/D exchange of amide N-H (in words): CDCl3, 5% MeOH-d4/0.5% HOAc-d4.
A short description of another series: in vivo. As to conditions: male, Wistar-Han, rat, po, 10 mg/kg.
A short description of the next series: human plasma stability. The series is classed as in vitro ADME. As to conditions: pH 7.4.
Setting [3] is: CDCl3, 5% CD3OD / 0.5% CD3CO2D, 297 K.

Non-standard residues stand in square brackets, D forms with d. Residues, ends and D or L forms follow the SMILES beside them. NMeY = CN[C@@H](Cc1ccc(O)cc1)C(=O)O; NMeL = CN[C@@H](CC(C)C)C(=O)O; dNMeL = CN[C@H](CC(C)C)C(=O)O

Broadly, the microsomal CLint is the rate of metabolic loss divided by the concentration. The low end stands for greater metabolic stability, the high end for faster metabolism. In general, AUC refers to the area under the concentration-time curve, a measure of exposure. Usually half-life stands for how long it takes for the measured level to halve. Higher therefore signals slow decline.

Regarding `CC(C)C[C@@H]1NC(=O)[C@H](CC(C)C)N(C)C(=O)[C@@H](CC(C)C)N(C)C(=O)[C@H](CO)NC(=O)[C@H](Cc2ccc(O)cc2)N(C)C(=O)[C@H]2CCCN2C1=O` [3 L^1S] (cyclo(L[dP][NMeY]S[dNMeL][NMeL])), the intrinsic metabolic clearance (microsomal CLint) at 1 µM in series [1] turned out to be 54 µL/min/mg; in series [2], 98 µL/min/mg.

`CC(C)C[C@@H]1NC(=O)[C@H](Cc2ccc(O)cc2)NC(=O)[C@H]2CCCN2C(=O)[C@H](CC(C)C)NC(=O)[C@H](CC(C)C)NC(=O)[C@@H](CC(C)C)NC1=O` [compound 1, cyclo[Leu, D-Leu, Leu, Leu, D-Pro, Tyr]] (cyclo(LL[dP]YL[dL])): the “H/D exchange of amide N-H (in words)” value in “H/D exchange studies” is reported as “exchanged within minutes or hours”.

On to `CC(C)C[C@@H]1NC(=O)[C@H](CC(C)C)NC(=O)[C@@H](CC(C)C)NC(=O)[C@H](Cc2ccc(O)cc2)NC(=O)[C@H]2CCCN2C(=O)[C@H](CC(C)C)NC1=O` [compound 2] (cyclo(LLL[dP]Y[dL])), for which, in the series “H/D exchange studies”, the “H/D exchange of amide N-H (in words)” value is on record as “exchanged with solvent over a few hours”.

With `CC(C)C[C@@H]1NC(=O)[C@H](Cc2ccc(O)cc2)N(C)C(=O)[C@H]2CCCN2C(=O)[C@H](CC(C)C)NC(=O)[C@H](CC(C)C)N(C)C(=O)[C@@H](CC(C)C)N(C)C1=O` [compound 3] (cyclo(L[dNMeL][NMeL]L[dP][NMeY])), in “H/D exchange studies” (setting [3]), the “t1/2 (H-D exchange) NH (a)” value is over 24 h and the “t1/2 (H-D exchange) NH (b)” value was over 24 h. Also, the “H/D exchange of amide N-H (in words)” value in “H/D exchange studies” was “over a period of several days”. For the same compound, the AUC in the series “in vivo” was found to be 10.5 ng·h/mL.

In the case of `CC(C)C[C@@H]1NC(=O)[C@H](CC(C)C)N(C)C(=O)[C@@H](CC(C)C)N(C)C(=O)[C@H](Cc2ccc(O)cc2)N(C)C(=O)[C@H]2CCCN2C(=O)[C@H](CC(C)C)N(C)C1=O` [compound 4] (cyclo(L[NMeL][dP][NMeY][dNMeL][NMeL])), the microsomal CLint at 1 µM in series [1] was over 320 µL/min/mg; in series [2] it was over 491 µL/min/mg. Also, in the series “human plasma stability”, the half-life at 1 µM was over 6 h. In addition, the “H/D exchange of amide N-H (in words)” value in “H/D exchange studies” is reported as “negligible exchange over 24 h”.

As to `CC(C)C[C@@H]1C(=O)N(C)[C@@H](CC(C)C)C(=O)N(C)[C@@H](CC(C)C)C(=O)N2CCC[C@@H]2C(=O)N(C)[C@@H](Cc2ccc(O)cc2)C(=O)N(C)[C@@H](CC(C)C)C(=O)N1C` [compound 5] (cyclo([NMeL][NMeL][dP][NMeY][NMeL][dNMeL])), the microsomal CLint at 1 µM in series [1] is over 320 µL/min/mg; in series [2], 317 µL/min/mg. For the same compound, the half-life at 1 µM in “human plasma stability” was over 6 h.

`CC(C)C[C@@H]1C(=O)N(C)[C@@H](CC(C)C)C(=O)N(C)[C@@H](CC(C)C)C(=O)N(C)[C@@H](CC(C)C)C(=O)N2CCC[C@@H]2C(=O)N(C)[C@@H](Cc2ccc(O)cc2)C(=O)N1C` [compound 6] (cyclo([NMeL][NMeL][NMeL][dP][NMeY][dNMeL])): the microsomal CLint at 1 µM was determined as 191 µL/min/mg in series [1] and 62.6 µL/min/mg in series [2]. For the same compound, the half-life at 1 µM in the series “human plasma stability” was over 6 h.
